Results taken from US20210308034A1, “PREBIOTIC COMPOSITIONS AND METHODS FOR MAINTAINING A HEALTHY SKIN MICROBIOTA” (KIMBERLY-CLARK WORLDWIDE, INC., priority 2018, published 2021).

Legend:
Type in all cases: cell-based
[1] = system: Staphylococcus aureus (ATCC 6538); experiment: Carbohydrate Screening Test Method (Biolog phenotype microarray), Bacteria Code G; conditions: Pathogenic; carbon microarray plate, OD 600 nm, 36 hr, 33° C.; positive = more than 0.05 OD units above zero; blank cell = not utilized
Source text: (§1) After creating desired ratios of various commensal skin bacteria in a healthy skin microbiome, 188 different carbohydrate sources were screened as the next step in determining potential prospects for skin microbiota balancing agents. The screening process was set up to determine which carbohydrate sources promoted commensal and/or pathogenic bacteria as well as to obtain individual and combinations of carbohydrate sources that could serve as microbiota balancing agents that can support or maintain the healthy proportions of commensal skin bacteria of Corynebacterium, Staphylococcus, and Micrococcus. The screening was conducted utilizing Biolog phenotype microarray plates (Hayward, Calif.). Table 1 provides a coded list of the commensal and pathogenic skin bacteria that the carbohydrates were screened against.
(§2) Table 2 provides the results of screening various carbohydrate sources against the commensal and pathogenic bacteria codes listed in Table 1. The Bacteria Codes B, D, E, I, and J are commensal bacteria and are shaded in Table 2 for references purposes. The bacteria codes were each placed in a carbon microarray plate and screened through the Carbohydrate Screening Test Method, as described in the Test Methods section herein. If a particular bacteria code utilized a specific carbohydrate source as described in the Carbohydrate Screening Test Method, then the corresponding cell in Table 2 was marked with a Y (short for “Yes”). […] Many of the carbohydrate sources were utilized by both commensal and pathogenic bacteria, and as such, would not provide an advantage for selective growth of the commensal bacteria. However, some of the carbohydrate sources were only used by commensal bacteria and were identified for further testing as described herein.
(§3) The study employed 10 representative skin bacteria; Staphylococcus epidermidis ATCC 14990, Staphylococcus epidermidis M23864:W2, Staphylococcus aureus ATCC 6538, Staphylococcus aureus ATCC 25904 (Newman), Pseudomonas aeruginosa ATCC 9027, Micrococcus luteus ATCC […], Micrococcus luteus SK58, Klebsiella pneumoniae ATCC BAA-2146, Corynebacterium amycolatum SK46, and Corynebacterium minutissimum ATCC 23348. Cultures were started from freezer bead stocks by placing a single bead into 20 mL of tryptic soy broth (TSB) for all organisms except C. amycolatum SK46 and C. minutissimum ATCC 23348, which were placed into brain heart infusion (BHI) broth. Cultures were grown for about 24 hr at 37° C. except M. luteus ATCC 49732 and M. luteus SK58, which were grown at 30° C. A passage of the culture was made using a sterile swab and streaked onto two M9*2 agar plates to prepare the incubated culture for the phenotype microarray pate according to Table 4. Plates were incubated for about 24 hr at 37° C. except for M. luteus ATCC 49732 and M. luteus SK58, which were incubated at 30° C. for 24 hr.
(§4) All cultures were harvested and washed before inoculation into the carbon microarray plate (BiOLOG, Hayward Calif.), with Biolog Plates PM1 and PM2 each having a source definition of Carbon. The bacteria on the M9*2 agar was suspended via agitation with an inoculating loop in 1 mL of M9*1 media for collection in a 1.7 mL micro centrifuge tube, as noted in Table 4. The bacteria was suspended again in M9*1 media, agitated, and collected into the same 1.7 mL microcentrifuge tube used in the previous step. The tube was centrifuged for 5 minutes at 4,000×G, supernatant decanted, the pellet was resuspended in 1 mL of M9*1 media, and vortex. This washing process was repeated for a total of 4 times.
(§5) A tenfold dilution in M9*1 media was performed using 1 mL of the washed bacterial culture. Of the tenfold dilution 200 μL was placed in an untreated 96-well plate (Falcon, Pasadena Tx.) for an initial optical density (OD) reading at a wavelength of 600 nm. The OD was used to correlate to colony forming units (CFU) per milliliter by using linear regression lines for each organism. […]

[2] = system: Corynebacterium jeikum (ATCC 33033); experiment: Carbohydrate Screening Test Method (Biolog phenotype microarray), Bacteria Code B; conditions: Commensal; carbon microarray plate, OD 600 nm, 36 hr, 33° C.; positive = more than 0.05 OD units above zero; blank cell = not utilized
In short: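 Strain from M9*2 agar was suspended in M9*1 medium, washed and inoculated into Biolog PM1/PM2 carbon plates. Carbohydrate use was scored yes/no, and growth rate and maximum yield were derived with GrowthRates 2.1, with max yields used for commensal ratios.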

[3] = system: Micrococcus luteus (SK58); experiment: Carbohydrate Screening Test Method (Biolog phenotype microarray), Bacteria Code E; conditions: Commensal; carbon microarray plate, OD 600 nm, 36 hr, 33° C.; positive = more than 0.05 OD units above zero; blank cell = not utilized
In short: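 Each commensal strain grown in Biolog carbon phenotype microarray plates with single carbohydrate sources. Growth curves fitted with GrowthRates 2.1 to give growth rate and maximum yield. Max yields used to calculate predicted co-culture ratios between Corynebacterium, Staphylococcus and Micrococcus, compared with desired ratios of 1.3, 1.4 and 1.1.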

[4] = system: Corynebacterium minutissimum (ATCC 23348); experiment: Carbohydrate Screening Test Method (Biolog phenotype microarray), Bacteria Code A; conditions: Pathogenic; carbon microarray plate, OD 600 nm, 36 hr, 33° C.; positive = more than 0.05 OD units above zero; blank cell = not utilized
Source text: as §1, §2, §3, §4, §5

[5] = system: Klebsiella pneumoniae (ATCC BAA-2146); conditions: Pathogenic; carbon microarray plate, OD 600 nm, 36 hr, 33° C.; positive = more than 0.05 OD units above zero; blank cell = not utilized
[6] = system: Staphylococcus aureus (ATCC 25904) (Newman); experiment: Carbohydrate Screening Test Method (Biolog phenotype microarray), Bacteria Code H; conditions: Pathogenic; carbon microarray plate, OD 600 nm, 36 hr, 33° C.; positive = more than 0.05 OD units above zero; blank cell = not utilized
Source text: as §1, §2, §3, §4, §5

[7] = system: Staphylococcus epidermidis (M23864:W2); experiment: Carbohydrate Screening Test Method (Biolog phenotype microarray), Bacteria Code J; conditions: Commensal; carbon microarray plate, OD 600 nm, 36 hr, 33° C.; positive = more than 0.05 OD units above zero; blank cell = not utilized
[8] = system: Pseudomonas aeruginosa (ATCC 9027); conditions: Pathogenic; carbon microarray plate, OD 600 nm, 36 hr, 33° C.; positive = more than 0.05 OD units above zero; blank cell = not utilized
In short: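 Carbon-source utilisation screen on Biolog PM1/PM2 plates: strain grown in TSB then on M9*2 agar, each ~24 h at 37 °C, washed four times in M9*1 and diluted tenfold. OD600 correlated to CFU/mL; each carbohydrate scored Yes when utilised.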

[9] = system: Micrococcus luteus (ATCC 49732); experiment: Carbohydrate Screening Test Method (Biolog phenotype microarray), Bacteria Code D; conditions: Commensal; carbon microarray plate, OD 600 nm, 36 hr, 33° C.; positive = more than 0.05 OD units above zero; blank cell = not utilized
Source text: as §1, §2, §3, §4, §5

[10] = system: Staphylococcus epidermidis (ATCC 14990); experiment: Carbohydrate Screening Test Method (Biolog phenotype microarray), Bacteria Code I; conditions: Commensal; carbon microarray plate, OD 600 nm, 36 hr, 33° C.; positive = more than 0.05 OD units above zero; blank cell = not utilized
Source text: as §1, §2, §3, §4, §5

O=C[C@@H](O)[C@@H](O)[C@H](O)[C@H](O)CO [D-Mannose]
Y: Carbohydrate Screening Results, Bacteria Code G [1] | Carbohydrate Screening Results, Bacteria Code B [2] | Carbohydrate Screening Results, Bacteria Code E [3] | Carbohydrate Screening Results, Bacteria Code A [4] | Carbohydrate Screening Results, Bacteria Code C [5] | Carbohydrate Screening Results, Bacteria Code H [6]

O=C(CO)[C@@H](O)[C@H](O)[C@H](O)COP(=O)(O)O [D-Fructose-6-Phosphate]
Y: Carbohydrate Screening Results, Bacteria Code G [1] | Carbohydrate Screening Results, Bacteria Code B [2] | Carbohydrate Screening Results, Bacteria Code E [3] | Carbohydrate Screening Results, Bacteria Code J [7] | Carbohydrate Screening Results, Bacteria Code H [6]

OC[C@H]1O[C@H](O[C@H]2O[C@H](CO)[C@@H](O)[C@H](O)[C@H]2O)[C@H](O)[C@@H](O)[C@@H]1O [D-Trehalose]
Y: Carbohydrate Screening Results, Bacteria Code G [1] | Carbohydrate Screening Results, Bacteria Code F [8] | Carbohydrate Screening Results, Bacteria Code B [2] | Carbohydrate Screening Results, Bacteria Code E [3] | Carbohydrate Screening Results, Bacteria Code D [9] | Carbohydrate Screening Results, Bacteria Code C [5] | Carbohydrate Screening Results, Bacteria Code H [6]

OC[C@H]1O[C@H](O[C@H]2[C@H](O)[C@@H](O)[C@H](O)O[C@@H]2CO)[C@H](O)[C@@H](O)[C@@H]1O [Maltose]
Y: Carbohydrate Screening Results, Bacteria Code F [8] | Carbohydrate Screening Results, Bacteria Code B [2] | Carbohydrate Screening Results, Bacteria Code E [3] | Carbohydrate Screening Results, Bacteria Code J [7] | Carbohydrate Screening Results, Bacteria Code I [10] | Carbohydrate Screening Results, Bacteria Code C [5] | Carbohydrate Screening Results, Bacteria Code H [6]

OC[C@H]1O[C@@H](n2cnc3c(O)ncnc32)[C@H](O)[C@@H]1O [Inosine]
Y: Carbohydrate Screening Results, Bacteria Code B [2] | Carbohydrate Screening Results, Bacteria Code E [3] | Carbohydrate Screening Results, Bacteria Code C [5] | Carbohydrate Screening Results, Bacteria Code H [6]

CC(=O)N[C@H]1C(O)O[C@H](CO)[C@@H](O)[C@@H]1O (stereo partly drawn) [N-Acetyl-D-Glucosamine]
Y: Carbohydrate Screening Results, Bacteria Code B [2] | Carbohydrate Screening Results, Bacteria Code E [3] | Carbohydrate Screening Results, Bacteria Code A [4]

Maltotriose
Y: Carbohydrate Screening Results, Bacteria Code F [8] | Carbohydrate Screening Results, Bacteria Code B [2] | Carbohydrate Screening Results, Bacteria Code E [3] | Carbohydrate Screening Results, Bacteria Code J [7] | Carbohydrate Screening Results, Bacteria Code A [4] | Carbohydrate Screening Results, Bacteria Code I [10] | Carbohydrate Screening Results, Bacteria Code C [5] | Carbohydrate Screening Results, Bacteria Code H [6]

C[C@H](O)C(=O)O [L-Lactic Acid]
Y: Carbohydrate Screening Results, Bacteria Code B [2] | Carbohydrate Screening Results, Bacteria Code E [3] | Carbohydrate Screening Results, Bacteria Code A [4] | Carbohydrate Screening Results, Bacteria Code I [10]

O=C(CO)[C@@H](O)[C@H](O)[C@H](O)CO [D-Fructose]
Y: Carbohydrate Screening Results, Bacteria Code G [1] | Carbohydrate Screening Results, Bacteria Code B [2] | Carbohydrate Screening Results, Bacteria Code E [3] | Carbohydrate Screening Results, Bacteria Code J [7] | Carbohydrate Screening Results, Bacteria Code A [4] | Carbohydrate Screening Results, Bacteria Code C [5] | Carbohydrate Screening Results, Bacteria Code H [6]

OC[C@H]1O[C@H](O)[C@H](O)[C@@H](O)[C@@H]1O [α-D-Glucose]
Y: Carbohydrate Screening Results, Bacteria Code G [1] | Carbohydrate Screening Results, Bacteria Code F [8] | Carbohydrate Screening Results, Bacteria Code B [2] | Carbohydrate Screening Results, Bacteria Code E [3] | Carbohydrate Screening Results, Bacteria Code J [7] | Carbohydrate Screening Results, Bacteria Code A [4] | Carbohydrate Screening Results, Bacteria Code I [10] | Carbohydrate Screening Results, Bacteria Code C [5] | Carbohydrate Screening Results, Bacteria Code H [6]

OC[C@H]1O[C@@](CO)(O[C@H]2O[C@H](CO)[C@@H](O)[C@H](O)[C@H]2O)[C@@H](O)[C@@H]1O [Sucrose]
Y: Carbohydrate Screening Results, Bacteria Code G [1] | Carbohydrate Screening Results, Bacteria Code F [8] | Carbohydrate Screening Results, Bacteria Code B [2] | Carbohydrate Screening Results, Bacteria Code E [3] | Carbohydrate Screening Results, Bacteria Code J [7] | Carbohydrate Screening Results, Bacteria Code A [4] | Carbohydrate Screening Results, Bacteria Code C [5]

OC[C@@H](O)[C@@H](O)[C@H](O)[C@H](O)CO [D-Mannitol]
Y: Carbohydrate Screening Results, Bacteria Code G [1] | Carbohydrate Screening Results, Bacteria Code F [8] | Carbohydrate Screening Results, Bacteria Code B [2] | Carbohydrate Screening Results, Bacteria Code E [3] | Carbohydrate Screening Results, Bacteria Code C [5] | Carbohydrate Screening Results, Bacteria Code H [6]

CO[C@@H]1O[C@H](CO)[C@@H](O)[C@H](O)[C@H]1O [β-Methyl-D-Glucoside]
Y: Carbohydrate Screening Results, Bacteria Code B [2] | Carbohydrate Screening Results, Bacteria Code E [3] | Carbohydrate Screening Results, Bacteria Code C [5] | Carbohydrate Screening Results, Bacteria Code H [6]

O=C[C@H](O)[C@@H](O)[C@H](O)[C@H](O)COP(=O)(O)O [D-Glucose-6-Phosphate]
Y: Carbohydrate Screening Results, Bacteria Code G [1] | Carbohydrate Screening Results, Bacteria Code F [8] | Carbohydrate Screening Results, Bacteria Code E [3] | Carbohydrate Screening Results, Bacteria Code J [7] | Carbohydrate Screening Results, Bacteria Code I [10] | Carbohydrate Screening Results, Bacteria Code C [5]
